Source: publication PMC10042774, “Theoretical and molecular mechanistic investigations of novel (3-(furan-2-yl)pyrazol-4-yl) chalcones against lung carcinoma cell line (A549)” (Naunyn-Schmiedeberg's Archives of Pharmacology, 2022)
≈ marks a conversion by molar mass, not a printed value. Where “and” joins values, the source holds several entries; their conditions need not be identical. Identical values can stand only once.

Columns and labels:
[1] = tested on: lung carcinoma (A549) cell line; assay: MTT assay against lung carcinoma (A549) cell line; format: cell-based, human; conditions: for IC50 values, Lung carcinoma (A549): 48 h; for IC50: Homo sapiens, A549, 48 h
Description: (§1) In vitro inhibition activity of the newly synthesized series was investigated on cell viability according to the literature review described by Mohamed et al. (Mohamed et al. [2021b]). In a brief explanation of MTT assay employed herein. In vitro, toxicological MTT Kit has been used to perform an (3-[4,5-dimethylthiazole-2-yl]-2,5-diphenyltetrazolium bromide) to measure the cytotoxicity effect of a novel (3-(Furan-2-yl)pyrazol-4-yl) chalcones against A549 cell line. Lung carcinoma cell line A549 was seeded in microplate where the prepared chalcones solution were added to triplicates well. Incubation of plates was done at 37 °C for 48 h. The fresh […]. Lung cells treated with different range concentration of our series [[…]] were incubated, also untreated cells were used as a reference negative control. One percent antibiotic mixture was used, and after incubation. The positive control utilized here was 5-FU ([…]).

[2] = tested on: normal lung (Wi38) cell line; assay: MTT assay against normal lung (Wi38) cell line; format: cell-based; conditions: Homo sapiens, WI-38, 48 h
Description: [Worded in the source for another cell line; this cell line is reported under the same test.] as §1

[3] = tested on: A549 cells; assay: Flow-cytometric analysis of apoptosis (Annexin V-FITC/PI); format: cell-based, human; conditions: IC50 conc., 48 h
Procedure: (§2) 10^6 of A549 cells were cultured in 60-mm Petri dishes for 24 h and then treated with compound 7batIC50concentrationfor 48 h. The untreated A549 cells were used as a negative control. After 48 h of incubation, A549 cells were centrifuged at1000 rpm for 5 min at 4 °C. The cells pellet were washed in phosphate-buffered saline (PBS) and then centrifuged at 1000 rpm for another 5 min. After discarding the supeRNAtant, the cells were collected in a single cell suspension and fixed in 70% ethanol on ice overnight. After the fixation step, cells were washed with 1 ml 1 × PBS. Finally, the cells pellet was incubated with a 200 µl 1 × propidium iodide (PI) mixture at room temperature in the dark for 30 min. Then, cells were subjected to an Epics XL-MCL flow cytometer (Beckman Coulter, Miami, FL) for DNA content analysis. Cells distribution at different phases was analysed by Multicycle software (Phoenix Flow Systems, San Diego, CA). Annexin V-FITC kit catalogue number (#K101-25) was used to detect the percentage of the apoptotic cells. About 10^6 of A549 cells were collected by centrifugation. Then, cells were washed in 500 µl of 1 × PBS. The cells were collected by centrifugation and then resuspended in the annexin V incubation reagent. The annexin V incubation reagent comprising of 10 μL binding buffer (10X) + 10 μL propidium iodide + 1 μL annexin V-FITC + 79 μL deionized water. The cells in 100 μL annexin V incubation reagent was incubated in dark at room temperature for 15 min (Ali et al. [2017]). Finally, the percentage of apoptotic cells was analyzed by flow cytometry using FITC signal detector (usually FL-1) and PI staining by the phycoerythrin emission signal detector (usually FL-2).

[4] = tested on: human caspase-8; assay: ELISA of caspase-8 in A549 cell lysates; format: cell-based; conditions: A549 cells, IC50 conc., 48 h, untreated control 0.375
Procedure: (§3) Elisa assay was performed to detect the concentration of human caspase-3, caspase-8, and caspase-9 in A549 cell culture lysates. The instructions were followed up according to the manuscript instructions described in the following kits: DRG® human Caspase-8 ELISA Kit, Catalogue # (EIA-4863), DRG® human Caspase-9 ELISA Kit, Catalogue # (EIA-4860), and Invitrogen human Caspase-3 Elisa Kit, Catalogue # KHO1091, respectively. All reagents, samples, and standards were prepared as described in the above ELISA kits. Briefly, the procedure was described as followed; the microwell strips were washed twice with wash buffer. A total of 100 μl of standard or samples were added to each well and incubated for 2 h at room temperature (18 to 25 °C). The microwell strips were emptied and washed three times with wash buffer. A total of 100 μl of prepared antibodyanti-rabbit-IgG-HRP) were added to each well for 1 h at room temperature. The step of washing was repeated three times and then, 100 μl of prepared TMB (tetramethyl-benzidine) substrate solution was pipetted to all wells and incubated for 10 min at room temperature. […] The absorbance of each microwell was read immediately on a spectrophotometer at a wavelength of 450 nm. The concentrations of the unknown samples and controls were determined from the standard curve which was plotted using curve fitting software.

[5] = tested on: P53; assay: Real-time PCR of P53 expression in A549 cells; format: cell-based, human; conditions: IC50 conc., 48 h, qPCR, untreated control = 1
Procedure: (§4) Total RNAfrom the compound 7b-, compound 7c-treated A549 cells, and untreated cells were extracted using the Qiagen RNAextraction Kit, Catalog # (74,104). 1 µg of RNAwas reverse transcribed into complementary DNA(cDNA) using High-Capacity cDNA Reverse Transcription Kit (Thermo Fisher scientific, ON, Canada). qPCR was performed using Bio RadSYBR Green qPCR master mix (Bio Rad, California, USA) in a Step One Plus Real-Time PCRSystem (Bio Rad, California, USA). The total reaction volume was 25 µL, 12.5 µL of SYBRgreen master mix, 1 µL of each primer (Bax, Bcl2, P53, CDK4) with 10 pmol/µL (Qiagen, CA, Germany), 2.5 µL of cDNA, and […] of RNAse free water. The thermal cycle of PCR started with an initial denaturation at 95 °C for 10 min, followed by 45 cycles at 94 °C for15 s, 65 °C for 30 s, and 56 °C for 30 s. The relative gene expression was determined using the method of 2^−ΔΔCtafter normalization to the expression of β-actin (Qiagen, CA, Germany) (10 pmol/µL). […]

[6] = tested on: A549 cells; assay: Flow-cytometric analysis of cell cycle (PI); format: cell-based, human; conditions: IC50 conc., 48 h
Procedure: as §2

[7] = tested on: human caspase-9; assay: ELISA of caspase-9 in A549 cell lysates; format: cell-based; conditions: A549 cells, IC50 conc., 48 h, untreated control 1.49
Procedure: as §3

[8] = tested on: Bcl2; assay: Real-time PCR of Bcl2 expression in A549 cells; format: cell-based, human; conditions: IC50 conc., 48 h, qPCR, untreated control = 1
Procedure: as §4

[9] = tested on: CDK4; assay: Real-time PCR of CDK4 expression in A549 cells; format: cell-based, human; conditions: IC50 conc., 48 h, qPCR, untreated control = 1
Procedure: as §4

[10] = tested on: BAX; assay: Real-time PCR of BAX expression in A549 cells; format: cell-based, human; conditions: IC50 conc., 48 h, qPCR, untreated control = 1
Procedure: as §4

[11] = tested on: human caspase-3; assay: ELISA of caspase-3 in A549 cell lysates; format: cell-based; conditions: A549 cells, IC50 conc., 48 h, untreated control 53.69
Procedure: as §3

Compound	IC50 values, Lung carcinoma (A549) [1] [mg/L]	melting point [°C]	IC50 [1] [mg/L]	IC50 [2] [mg/L]	further results
O=c1[nH]cc(F)c(=O)[nH]1 [5-FU, reference compound]	147.29 (≈ 1130 µM)				
Cc1c(C(=O)/C=C/c2ccco2)c(-c2ccco2)nn1-c1ccc([N+](=O)[O-])cc1 [7a, (E)-3-(Furan-2-yl)-1-(3-(furan-2-yl)-5-methyl-1-(4-nitrophenyl)-1H-pyrazol-4-yl)prop-2-en-1-one]		138 to 140	42.7 (≈ 110 µM)	68 (≈ 175 µM)	
Cc1c(C(=O)/C=C/c2cccs2)c(-c2ccco2)nn1-c1ccc([N+](=O)[O-])cc1 [7b, (E)-1-(3-(Furan-2-yl)-5-methyl-1-(4-nitrophenyl)-1H-pyrazol-4-yl)-3-(thiophen-2-yl)prop-2-en-1-one]	20.05 (≈ 49.5 µM)	142 to 144	20 (≈ 49.3 µM)	108 (≈ 267 µM)	Apoptosis % % Late ([3]; untreated control 0.11): 21.24%; Apoptosis % % Early ([3]; untreated control 0.34): 3.69%; Necrosis% ([3]; untreated control 1.26): 17.23%; Apoptosis % %Total ([3]; untreated control 1.71): 42.16%; Enzyme activity ± SD, Caspase 8 [4]: 1.575 ± 0.05 pg/mL; Gene expression (fold change/ β-actin), P53 [5]: 4.69 fold change; Cell cycle arrest (phase) [6]: cell cycle arrest at G0/G1 and S phases; G2/M % (DNA content) ([6]; untreated control 15.63): 4.21%; S % (DNA content) ([6]; untreated control 37.15): 43.42%; G0/G1% (DNA content) ([6]; untreated control 47.22): 52.37%; Enzyme activity ± SD, Caspase 9 [7]: 15.76 ± 0.06 pg/mL; Gene expression (fold change/ β-actin), Bcl2 [8]: 0.44 fold change; Gene expression (fold change/ β-actin), CDK4 [9]: 0.39 fold change; Gene expression (fold change/ β-actin), BAX [10]: 7.93 fold change; Enzyme activity ± SD, Caspase 3 [11]: 495.4 pg/mL and 495.4 ± 6.52 pg/mL
Cc1c(C(=O)/C=C/c2ccncc2)c(-c2ccco2)nn1-c1ccc([N+](=O)[O-])cc1 [7c, (E)-1-(3-(Furan-2-yl)-5-methyl-1-(4-nitrophenyl)-1H-pyrazol-4-yl)-3-(pyridin-4-yl)prop-2-en-1-one]		198 to 200	13.9 (≈ 34.6 µM)	18.2 (≈ 45.5 µM)	Enzyme activity ± SD, Caspase 8 [4]: 1.042 pg/mL and 1.042 ± 0.02 pg/mL; Gene expression (fold change/ β-actin), P53 [5]: 2.32 fold change; Enzyme activity ± SD, Caspase 9 [7]: 11.2 pg/mL and 11.2 ± 0.52 pg/mL; Gene expression (fold change/ β-actin), Bcl2 [8]: 0.61 fold change; Gene expression (fold change/ β-actin), CDK4 [9]: 0.54 fold change; Gene expression (fold change/ β-actin), BAX [10]: 4.78 fold change; Enzyme activity ± SD, Caspase 3 [11]: 377.2 pg/mL and 377.2 ± 6.04 pg/mL
Cc1c(C(=O)/C=C/c2nn(-c3ccccc3)cc2-c2ccccc2)c(-c2ccco2)nn1-c1ccc([N+](=O)[O-])cc1 [7d, (E)-3-(1,4-Diphenyl-1H-pyrazol-3-yl)-1-(3-(furan-2-yl)-5-methyl-1-(4-nitrophenyl)-1H-pyrazol-4-yl)prop-2-en-1-one]	76.52 (≈ 141 µM)	168 to 170	76.5 (≈ 141 µM)	261 (≈ 483 µM)	
Cc1ccc(-c2cn(-c3ccccc3)nc2/C=C/C(=O)c2c(-c3ccco3)nn(-c3ccc([N+](=O)[O-])cc3)c2C)cc1 [7e, (E)-1-(3-(Furan-2-yl)-5-methyl-1-(4-nitrophenyl)-1H-pyrazol-4-yl)-3-(1-phenyl-4-(p-tolyl)-1H-pyrazol-3-yl)prop-2-en-1-one]		248 to 250	217 (≈ 391 µM)	296 (≈ 532 µM)	
COc1ccc(-c2cn(-c3ccccc3)nc2/C=C/C(=O)c2c(-c3ccco3)nn(-c3ccc([N+](=O)[O-])cc3)c2C)cc1 [7f, (E)-1-(3-(Furan-2-yl)-5-methyl-1-(4-nitrophenyl)-1H-pyrazol-4-yl)-3-(4-(4-methoxyphenyl)-1-phenyl-1H-pyrazol-3-yl)prop-2-en-1-one]		232 to 234	238 (≈ 416 µM)	296 (≈ 518 µM)	
Cc1c(C(=O)/C=C/c2nn(-c3ccccc3)cc2-c2ccc(Cl)cc2)c(-c2ccco2)nn1-c1ccc([N+](=O)[O-])cc1 [7g, (E)-3-(4-(4-Chlorophenyl)-1-phenyl-1H-pyrazol-3-yl)-1-(3-(furan-2-yl)-5-methyl-1-(4-nitrophenyl)-1H-pyrazol-4-yl)prop-2-en-1-one]		242 to 244	251 (≈ 437 µM)	379 (≈ 658 µM)	
Cc1c(C(=O)/C=C/c2nn(-c3ccccc3)cc2-c2ccc([N+](=O)[O-])cc2)c(-c2ccco2)nn1-c1ccc([N+](=O)[O-])cc1 [7h, (E)-1-(3-(Furan-2-yl)-5-methyl-1-(4-nitrophenyl)-1H-pyrazol-4-yl)-3-(4-(4-nitrophenyl)-1-phenyl-1H-pyrazol-3-yl)prop-2-en-1-one]		242	211 (≈ 360 µM)	224 (≈ 382 µM)	
